Reference: patent publication US20180099931A1 (AbbVie S.à.r.l., priority 2016, published 2018)
Like-named read-outs stand apart in the source and are kept apart here.

Biological target: T1, F508delCFTR (Homo sapiens, UniProt P13569, DEL508-508)
T1 construct: expressed in transfected cells; host or cells: CFBE41o- human lung-derived epithelial cells (CFBE4lo-F508delCFTR-HRP), doxycycline-inducible
Experiment: Cell Surface Expression-Horse Radish Peroxidase (CSE-HRP) Assay;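 for Maximum % activity (with co-corrector): co-corrector and positive control are both the same reference corrector at 2 µM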;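 for Maximum % activity (without co-corrector): percent of the 2 µM on-plate positive control corrector response above DMSO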
Format: cell-based
Settings: for Maximum % activity (with co-corrector) / Emax: maximum at any tested concentration, normalized to on-plate positive control; for Emax: read-out: Maximum % activity (without co-corrector)

[1] = CSE-HRP, test compound without co-corrector, read-out: EC50 (without co-corrector)
[2] = CSE-HRP, with co-corrector (2 μM of 3-[(2R,4R)-4-({[1-(2,2-difluoro-1,3-benzodioxol-5-yl)cyclopropyl]carbonyl}amino)-7-methoxy-3,4-dihydro-2H-chromen-2-yl]benzoic acid), read-out: EC50 (with co-corrector)
[3] = CSE-HRP, with co-corrector (2 μM)

T1 sequence (P13569 with tags, fused parts or gaps DEL508-508): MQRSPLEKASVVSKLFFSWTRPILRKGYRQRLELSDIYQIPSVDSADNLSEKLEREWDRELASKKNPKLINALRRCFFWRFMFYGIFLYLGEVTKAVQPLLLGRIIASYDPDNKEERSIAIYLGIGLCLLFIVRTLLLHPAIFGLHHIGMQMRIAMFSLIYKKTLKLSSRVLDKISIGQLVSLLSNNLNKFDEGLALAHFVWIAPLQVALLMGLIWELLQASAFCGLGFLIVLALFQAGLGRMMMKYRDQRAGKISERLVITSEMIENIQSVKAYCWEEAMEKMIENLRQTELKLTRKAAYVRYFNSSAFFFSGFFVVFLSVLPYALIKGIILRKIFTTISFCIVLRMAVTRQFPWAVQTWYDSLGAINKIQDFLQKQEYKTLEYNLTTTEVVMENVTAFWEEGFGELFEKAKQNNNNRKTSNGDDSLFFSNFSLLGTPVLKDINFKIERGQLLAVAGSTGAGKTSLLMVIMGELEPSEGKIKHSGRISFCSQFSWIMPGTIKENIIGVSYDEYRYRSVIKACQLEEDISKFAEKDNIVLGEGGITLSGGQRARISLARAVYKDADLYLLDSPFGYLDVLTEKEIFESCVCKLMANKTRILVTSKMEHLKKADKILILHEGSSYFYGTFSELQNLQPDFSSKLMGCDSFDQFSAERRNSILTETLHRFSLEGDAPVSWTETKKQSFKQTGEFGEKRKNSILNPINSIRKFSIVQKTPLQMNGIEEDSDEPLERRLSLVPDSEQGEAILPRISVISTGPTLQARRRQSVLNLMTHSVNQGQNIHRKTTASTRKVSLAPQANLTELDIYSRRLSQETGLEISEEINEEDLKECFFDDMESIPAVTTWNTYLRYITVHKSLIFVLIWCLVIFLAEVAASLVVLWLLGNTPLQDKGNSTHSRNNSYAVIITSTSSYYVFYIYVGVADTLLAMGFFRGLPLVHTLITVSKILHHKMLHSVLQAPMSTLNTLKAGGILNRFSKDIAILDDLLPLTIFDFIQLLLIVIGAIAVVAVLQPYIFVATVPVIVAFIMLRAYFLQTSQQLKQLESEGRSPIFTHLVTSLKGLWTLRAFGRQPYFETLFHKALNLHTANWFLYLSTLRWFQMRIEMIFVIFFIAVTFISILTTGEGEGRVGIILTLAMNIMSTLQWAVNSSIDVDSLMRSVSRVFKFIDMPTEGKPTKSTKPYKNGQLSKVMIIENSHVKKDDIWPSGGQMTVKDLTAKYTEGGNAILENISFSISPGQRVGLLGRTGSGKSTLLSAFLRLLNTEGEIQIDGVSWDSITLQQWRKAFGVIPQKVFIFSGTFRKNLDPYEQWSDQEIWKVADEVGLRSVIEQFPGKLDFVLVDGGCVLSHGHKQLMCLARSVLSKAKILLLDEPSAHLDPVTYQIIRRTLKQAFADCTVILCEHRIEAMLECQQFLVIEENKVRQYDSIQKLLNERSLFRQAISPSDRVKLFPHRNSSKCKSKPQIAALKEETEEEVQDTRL

Compound | EC50 [1] | EC50 [2] | Maximum % activity (with co-corrector) [3] | Emax (CSE-HRP, without co-corrector) | Emax (test compound without co-corrector) | EC50 (test compound without co-corrector, read-out: EC50 (without co-corrector)) | Maximum % activity (with co-corrector) (with co-corrector (2 μM of 3-[(2R,4R)-4-({[1-(2,2-difluoro-1,3-benzodioxol-5-yl)cyclopropyl]carbonyl}amino)-7-methoxy-3,4-dihydro-2H-chromen-2-yl]benzoic acid)) | EC50 (with co-corrector (2 μM of 3-[(2R,4R)-4-({[1-(2,2-difluoro-1,3-benzodioxol-5-yl)cyclopropyl]carbonyl}amino)-7-methoxy-3,4-dihydro-2H-chromen-2-yl]benzoic acid), read-out: EC50 (with co-corrector))
COc1cccc(S(=O)(=O)N2[C@H](C(=O)O)[C@@H](C(C)(C)C)[C@H](NCc3cc(C4CCC4)cnc3OC)[C@@H]2c2ccccc2C(C)C)n1 [Example I-303] | 1000 to 10000 nM | 1000 to 10000 nM | +++ (≥350) | < 100% |  |  |  | 
COc1ccc(C2(C)CCC2)cc1CN[C@H]1[C@H](C(C)(C)C)[C@@H](C(=O)O)N(C(=O)[C@@H]2CCCCO2)[C@H]1c1ccccc1C(C)C [Example I-304] | < 1000 nM | < 1000 nM | +++ (≥350) | > 200% |  |  |  | 
CC(C)c1ccccc1[C@H]1[C@@H](NCc2cccc3c2OC(C)(C)C3)[C@H](C(C)(C)C)[C@@H](C(=O)O)N1C(=O)[C@@H]1CCCO1 [Example I-305] | 1000 to 10000 nM | 1000 to 10000 nM | +++ (≥350) | 100 to 200% |  |  |  | 
CC(C)c1ccccc1[C@H]1[C@@H](NCc2cccc3c2OC(C)(C)C3)[C@H](C(C)(C)C)[C@@H](C(=O)O)N1C(=O)[C@@H]1CCCCO1 [Example I-306] | < 1000 nM | < 1000 nM | +++ (≥350) | > 200% |  |  |  | 
COc1ncc(C2CCC2)cc1CN[C@H]1[C@H](C(C)(C)C)[C@@H](C(=O)O)N(C(=O)C2CCCCC2)[C@H]1c1cccc2c1OC(C)(C)C2 [Example I-307] | < 1000 nM | < 1000 nM | +++ (≥350) | > 200% |  |  |  | 
COc1ccc(Cl)c2c1CN([C@H]1[C@H](C(C)(C)C)[C@@H](C(=O)O)N(C(=O)[C@@H]3CCCCO3)[C@H]1c1ccccc1C(C)C)C2 [Example I-308] | 1000 to 10000 nM | < 1000 nM | +++ (≥350) | < 100% |  |  |  | 
COc1ccc(C(F)(F)F)cc1OCCN[C@H]1[C@H](C(C)(C)C)[C@@H](C(=O)O)N(C(=O)OC(C)C)[C@H]1c1cccnc1OC(C)C [Example I-309] | 1000 to 10000 nM | 1000 to 10000 nM | +++ (≥350) | 100 to 200% |  |  |  | 
COc1ccc(C(C)(C)C)cc1CN[C@H]1[C@H](C(C)(C)C)[C@@H](C(=O)O)N(C(=O)C2CCCCC2)[C@H]1c1ccccc1O [Example I-310] | 1000 to 10000 nM | < 1000 nM | +++ (≥350) | > 200% |  |  |  | 
COc1cccc(-c2cnc(OC)c(CN[C@H]3[C@H](C(C)(C)C)[C@@H](C(=O)O)N(C(=O)C4CCCCC4)[C@H]3c3ccccc3)c2)c1 [Example II-341, (2S,3S,4S,5S)-3-(tert-butyl)-1-(cyclohexanecarbonyl)-4-(((2-methoxy-5-(3-methoxyphenyl)pyridin-3-yl)methyl)amino)-5-phenylpyrrolidine-2-carboxylic acid] |  |  |  |  | 100 to 200% | < 1000 nM | +++ (≥350) | < 1000 nM
Cc1cc(C(F)(F)F)cc(N[C@@H]2[C@@H](C)[C@H](C(=O)O)N(C(=O)N(C(C)C)C(C)C)[C@@H]2c2ccccc2)n1 [II-11] | 1000 to 10000 nM | 1000 to 10000 nM | +++ (≥350) | < 100% |  |  |  | 
COc1ccc(C(F)(F)F)cc1CN[C@H]1[C@H](C(C)(C)C)[C@@H](C(=O)O)N(C(=O)[C@H](OC)c2ccccc2)[C@H]1c1ccccc1N(C)C [II-62] | 1000 to 10000 nM | 1000 to 10000 nM | +++ (≥350) | > 200% |  |  |  | 
COc1ccc(Cl)cc1CN[C@H]1[C@H](C(C)(C)C)[C@@H](C(=O)O)N(C(=O)[C@H](OC)c2ccccc2)[C@H]1c1ccccc1N(C)C [II-63] | 1000 to 10000 nM | 1000 to 10000 nM | +++ (≥350) | > 200% |  |  |  | 
COc1ccc(C(F)(F)F)cc1CN[C@@H]1[C@@H](C(C)(C)C)[C@H](C(=O)O)N(C(=O)[C@@H](OC)c2ccccc2)[C@@H]1c1ccccc1 [II-64] | > 10000 nM | 1000 to 10000 nM | ++ (≥150 and <350) | < 100% |  |  |  | 
COc1cc(C(F)(F)F)ccc1CN[C@H]1[C@H](C(C)(C)C)[C@@H](C(=O)O)N(C(=O)[C@@H](OC)c2ccccc2)[C@H]1c1ccccc1 [II-65] | 1000 to 10000 nM | 1000 to 10000 nM | +++ (≥350) | 100 to 200% |  |  |  | 
COc1cc(C(F)(F)F)ccc1CN[C@H]1[C@H](C(C)(C)C)[C@@H](C(=O)O)N(C(=O)[C@H]2CCCCO2)[C@H]1c1ccccc1 [II-81] | 1000 to 10000 nM | 1000 to 10000 nM | +++ (≥350) | 100 to 200% |  |  |  | 
COc1cc(C(F)(F)F)ccc1CN[C@@H]1[C@@H](C(C)(C)C)[C@H](C(=O)O)N(C(=O)[C@@H]2CCCCO2)[C@@H]1c1ccccc1 [II-82] | 1000 to 10000 nM | 1000 to 10000 nM | +++ (≥350) | 100 to 200% |  |  |  | 
COc1ncc(C(F)(F)F)cc1CN[C@H]1[C@H](C(C)(C)C)[C@@H](C(=O)O)N(C(=O)[C@H](OC)c2ccccc2)[C@H]1c1ccccc1 [II-83] | 1000 to 10000 nM | < 1000 nM | +++ (≥350) | > 200% |  |  |  | 
COc1cc(C(F)(F)F)ccc1CN[C@H]1[C@H](C(C)(C)C)[C@@H](C(=O)O)N(C(=O)[C@H](OC)c2ccccc2)[C@H]1c1cccnc1OC [II-84] | 1000 to 10000 nM | 1000 to 10000 nM | +++ (≥350) | 100 to 200% |  |  |  | 
COc1cc(C(F)(F)F)ccc1CN[C@H]1[C@H](C(C)(C)C)[C@@H](C(=O)O)N(C(=O)[C@H](OC)c2ccccc2)[C@H]1c1cccnc1N(C)C [II-87] | 1000 to 10000 nM | 1000 to 10000 nM | +++ (≥350) | 100 to 200% |  |  |  | 
COc1cc(Cl)ccc1CN[C@H]1[C@H](C(C)(C)C)[C@@H](C(=O)O)N(C(=O)C2CCCCC2)[C@H]1c1cccnc1OC [II-91] | 1000 to 10000 nM | 1000 to 10000 nM | +++ (≥350) | 100 to 200% |  |  |  | 
COc1cc(C(F)(F)F)ccc1CN[C@H]1[C@H](C(C)(C)C)[C@@H](C(=O)O)N(C(=O)[C@@H]2CCCCO2)[C@H]1c1cccnc1OC [II-92] | 1000 to 10000 nM | 1000 to 10000 nM | +++ (≥350) | 100 to 200% |  |  |  | 
COc1ccc(C(F)(F)F)cc1CN[C@H]1[C@H](C(C)(C)C)[C@@H](C(=O)O)N(C(=O)C2CCCCC2)[C@H]1c1cccnc1C [II-93] | 1000 to 10000 nM | 1000 to 10000 nM | +++ (≥350) | 100 to 200% |  |  |  | 
COc1cc(C(F)(F)F)ccc1CN[C@H]1[C@H](C(C)(C)C)[C@@H](C(=O)O)N(C(=O)C2CCCCC2)[C@H]1c1cccnc1C [II-94] | 1000 to 10000 nM | 1000 to 10000 nM | +++ (≥350) | 100 to 200% |  |  |  | 
COc1ccc(Cl)cc1CN[C@H]1[C@H](C(C)(C)C)[C@@H](C(=O)O)N(C(=O)C2CCCCC2)[C@H]1c1cccnc1C [II-95] | 1000 to 10000 nM | 1000 to 10000 nM | +++ (≥350) | < 100% |  |  |  | 
COc1cc(Cl)ccc1CN[C@H]1[C@H](C(C)(C)C)[C@@H](C(=O)O)N(C(=O)C2CCCCC2)[C@H]1c1cccnc1C [II-96] | 1000 to 10000 nM | 1000 to 10000 nM | +++ (≥350) | 100 to 200% |  |  |  | 
